Source: US7449463B2, “Morpholinyl containing benzimidazoles as inhibitors of respiratory syncytial virus replication” (Tibotec Pharmaceuticals Ltd., priority 2003, dated 2008)

Experiments:
[1] = test system: Respiratory Syncytial Virus; assay: microbe, parasite or virus in culture; format: cell-based; conditions: human respiratory syncytial virus
Summary of the method: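 HeLa cells infected with ~100 TCID50 RSV in Eagle's Basal Medium with 5% FCS, five-fold compound dilutions, 37° C, 5% CO2 for 7 days. Viability by MTT (A540 minus A690); EC50 for protection against cytopathic effect and CC50 from mock-infected wells, SI = CC50/EC50.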

[2] = 168 h, RSV-infected HeLa cells, MTT readout seven days after infection, −log of EC50 in molar units
[3] = pEC50 (−log of EC50 when expressed in molar units), protection against RSV cytopathology

Row | Structure (SMILES) | melting point | EC50 [1, 2] | EC50 [1, 3]
1 | Cc1cc(C)cc(NC(=O)c2ccc3nc(NCCCN4CCOCC4)n(Cc4nc(C)ccc4O)c3c2)c1 [Compound 160] | 172 °C | > 10000 nM | 
2 | Cc1cc(C)c2nc(N(CC(C)N3CCOCC3)C3CCNCC3)n(Cc3nc(C)ccc3O)c2c1 (centres unmarked) [Compound 161, 2-[4,6-dimethyl-2-(2-morpholin-4-ylpropyl-piperidin-4-ylamino)-benzoimidazol-1-ylmethyl]-6-methyl-pyridin-3-ol] | 223 °C | 2.51 nM | 
3 | Cc1cc(C)cc(NCc2ccc3nc(NC4CCNC(CCN5CCOCC5)C4)n(Cc4nc(C)ccc4O)c3c2)c1 (centres unmarked) [Compound 163, 2-{6-[(3,5-dimethyl-phenylamino)-methyl]-2-[2-(2-morpholin-4-yl-ethyl)-piperidin-4-ylamino]-benzoimidazol-1-ylmethyl}-6-methyl-pyridin-3-ol] | 150 °C | 12.6 nM | 
4 | Cc1ccc(O)c(Cn2c(NC3CCNC(CCN4CCOCC4)C3)nc3ccc(CCc4ccccc4)cc32)n1 (centres unmarked) [Compound 165, 6-methyl-2-{2-[2-(2-morpholin-4-yl-ethyl)-piperidin-4-ylamino]-6-phenethyl-benzoimidazol-1-ylmethyl}-pyridin-3-ol] | 159 °C | 126 nM | 
5 | Cc1ccc(O)c(Cn2c(NC3CCNC(CCN4CCOCC4)C3)nc3ccc(C=Cc4ccccc4)cc32)n1 (centres unmarked) [Compound 169, 6-methyl-2-{2-[2-(2-morpholin-4-yl-ethyl)-piperidin-4-ylamino]-6-styryl-benzoimidazol-1-ylmethyl}-pyridin-3-ol] | 224 °C | 631 nM | 
6 | Cc1cc(C)c2nc(N(CCN3CCOCC3)C3CCNCC3)n(Cc3nc(C)ccc3O)c2c1 [Compound 170, 2-[4,6-dimethyl-2-(2-morpholin-4-ylethyl-piperidin-4-ylamino)-benzoimidazol-1-ylmethyl]-6-methyl-pyridin-3-ol] | 237 °C | 794 nM | 
7 | Cc1cc(C)cc(NCc2ccc3nc(NCC(O)CN4CCOCC4)n(Cc4nc(C)ccc4O)c3c2)c1 (centres unmarked) [Compound 171, 2-[6-[(3,5-dimethyl-phenylamino)-methyl]-2-(2-hydroxy-3-morpholin-4-yl-propyl-amino)-benzoimidazol-1-ylmethyl]-6-methyl-pyridin-3-ol] | 198 °C | 2.51 nM | 
8 | Cc1cc(C)cc(NCc2ccc3nc(NCCCN4CC(C)OC(C)C4)n(Cc4nc(C)ccc4O)c3c2)c1 (centres unmarked) [Compound 172, 2-{2-[3-(2,6-dimethyl-morpholin-4-yl)-propylamino]-6-[(3,5-dimethyl-phenylamino)-methyl]-benzoimidazol-1-ylmethyl}-6-methyl-pyridin-3-ol] | 192 °C | 15.8 nM | 
9 | Cc1cc(C)c2nc(NCCCN3CCOC(CC(N)=O)C3)n(Cc3nc(C)ccc3O)c2c1 (centres unmarked) [Compound 191, 2-(4-{3-[1-(3-Hydroxy-6-methyl-pyridin-2-ylmethyl)-4,6-dimethyl-1H-benzoimidazol-2-ylamino]-propyl}-morpholin-2-yl)-acetamide] | 148 °C | 158 nM | 
10 | Cc1ccc(CCO)c(NCc2ccc3nc(NCCCN4CCOCC4)n(Cc4ncccc4O)c3c2)c1 [Compound 192, 2-[6-{[2-(2-Hydroxy-ethyl)-5-methyl-phenylamino]-methyl}-2-(3-morpholin-4-yl-propylamino)-benzoimidazol-1-ylmethyl]-pyridin-3-ol] | 192 °C |  | 0.501 nM
11 | Cc1ccc(CCO)c(NCc2ccc3nc(NCCCN4CCOCC4)n(C4CCCc5nc(C)c(C)nc54)c3c2)c1 (centres unmarked) [Compound 193, 2-(2-{[3-(2,3-Dimethyl-5,6,7,8-tetrahydroquinoxalin-5-yl)-2-(3-morpholin-4-yl-propylamino)-3H-benzoimidazol-5-ylmethyl]-amino}-4-methyl-phenyl)-ethanol] | 162 °C |  | 0.501 nM
12 | Cc1ccc(CCCO)c(NCc2ccc3nc(NCCCN4CCOCC4)n(Cc4cc(Br)ccc4O)c3c2)c1 [Compound 201, 4-Bromo-2-[6-{[2-(3-hydroxy-propyl)-5-methyl-phenylamino]-methyl}-2-(3-morpholin-4-yl-propylamino)-benzoimidazol-1-ylmethyl]-phenol] | 134 °C |  | 0.501 nM
13 | Cc1cc(C)cc(N(CCCC(N)=O)Cc2ccc3nc(NCCCN4CCOCC4)n(C4CCCc5nc(C)c(C)nc54)c3c2)c1 (centres unmarked) [Compound 213, 4-{(3,5-Dimethyl-phenyl)-[3-(2,3-dimethyl-5,6,7,8-tetrahydro-quinoxalin-5-yl)-2-(3-morpholin-4-yl-propylamino)-3H-benzoimidazol-5-ylmethyl]-amino}-butyramide] | 109 °C |  | 1.58 nM
14 | Cc1ccc(CCCO)c(NCc2ccc3nc(NCCCN4CCOCC4)n(Cc4cccc5c4ncn5C)c3c2)c1 [Compound 218, 3-(4-Methyl-2-{[3-(1-methyl-1H-benzoimidazol-4-ylmethyl)-2-(3-morpholin-4-yl-propylamino)-3H-benzoimidazol-5-ylmethyl]-amino}-phenyl)-propan-1-ol] | 198 °C |  | 2.51 nM
15 | COc1ccc(C)nc1Cn1c(NCCCN2CCOCC2)nc2ccc(CNc3cc(C)ccc3CCCO)cc21 [Compound 219, 3-(2-{[3-(3-Methoxy-6-methyl-pyridin-2-ylmethyl)-2-(3-morpholin-4-yl-propylamino)-3H-benzoimidazol-5-ylmethyl]-amino}-4-methyl-phenyl)-propan-1-ol] | 132 °C |  | 2.51 nM
16 | Cc1cc(C)cc(N(CCCC(N)=O)Cc2ccc3nc(NCCCN4CCOCC4)n(Cc4cccc5cccnc45)c3c2)c1 [Compound 223, 4-{(3,5-Dimethyl-phenyl)-[2-(3-morpholin-4-yl-propylamino)-3-quinolin-8-ylmethyl-3H-benzoimidazol-5-ylmethyl]-amino}-butyramide] | 154 °C |  | 3.16 nM
17 | Cc1cc(C)cc(N(CCCC(N)=O)Cc2ccc3nc(NCCCN4CCOCC4)n(Cc4cccc5c4ncn5C)c3c2)c1 [Compound 230, 4-{(3,5-Dimethyl-phenyl)-[3-(1-methyl-1H-benzoimidazol-4-ylmethyl)-2-(3-morpholin-4-yl-propylamino)-3H-benzoimidazol-5-ylmethyl]-amino}-butyramide] | 206 °C |  | 3.98 nM
18 | Cc1cc(C)cc(N(CCO)Cc2ccc3nc(NCCCN4CCOCC4)n(Cc4nc(C)c(C)nc4C)c3c2)c1 [Compound 233, 2-{(3,5-Dimethyl-phenyl)-[2-(3-morpholin-4-yl-propylamino)-3-(3,5,6-trimethyl-pyrazin-2-ylmethyl)-3H-benzoimidazol-5-ylmethyl]-amino}-ethanol] | 140 °C |  | 5.01 nM
19 | Cc1ccc(CCCO)c(NCc2ccc3nc(NCCCN4CCOCC4)n(Cc4cccc5cccnc45)c3c2)c1 [Compound 234, 3-(4-Methyl-2-{[2-(3-morpholin-4-yl-propylamino)-3-quinolin-8-ylmethyl-3H-benzoimidazol-5-ylmethyl]-amino}-phenyl)-propan-1-ol] | 165 °C |  | 5.01 nM
20 | Cc1ccc(CCCO)c(NCc2ccc3nc(NCCCN4CCOCC4)n(Cc4nc(C)c(C)nc4C)c3c2)c1 [Compound 255, 3-(4-Methyl-2-{[2-(3-morpholin-4-yl-propylamino)-3-(3,5,6-trimethyl-pyrazin-2-ylmethyl)-3H-benzoimidazol-5-ylmethyl]-amino}-phenyl)-propan-1-ol] | 120 °C |  | 25.1 nM
21 | Cc1cc(C)cc(N(CCCC(N)=O)Cc2ccc3nc(NCCCN4CCOCC4)n(Cc4cccc(Br)n4)c3c2)c1 [Compound 261, 4-[[3-(6-Bromo-pyridin-2-ylmethyl)-2-(3-morpholin-4-yl-propyl-amino)-3H-benzoimidazol-5-ylmethyl]-(3,5-dimethyl-phenyl)-amino]-butyramide] | 82 °C |  | 31.6 nM
22 | Cc1ccc(CCCO)c(NCc2ccc3nc(NCCCN4CCOCC4)n(Cc4cccc(Br)n4)c3c2)c1 [Compound 267, 3-(2-{[3-(6-Bromo-pyridin-2-ylmethyl)-2-(3-morpholin-4-yl-propylamino)-3H-benzoimidazol-5-ylmethyl]-amino}-4-methyl-phenyl)-propan-1-ol] | 141 °C |  | 50.1 nM
